Test results as given in US20240174744A1, “METHODS OF TREATMENT USING PROTEIN BINDERS TO IRHOM2 EPITOPES” (SCIRHOM GMBH, priority 2021, published 2024).

Test system: PMA-induced release of IL-6R from PBMCs from healthy donors
Experiment: ELISA-based IL-6R release assay, PBMCs from healthy donors
Type: cell-based
Settings: Homo sapiens, PBMC; recombinant murine antibodies 1 μg/ml; Batimastat 10 μM; PMA 25 ng/ml, 6 hours
Method: In the following study, ELISA-based IL-6R release assays were performed to analyze the inhibitory effects of the antibodies of the present disclosure on PMA-induced release of endogenous IL-6R from primary human material obtained from healthy donors using peripheral blood mononuclear cells (PBMCs).
In brief, on day 1, Nunc black MaxiSorp® 96-well plates (Thermo Fisher Scientific, USA) were coated overnight with 100 μl per well of mouse anti-human IL-6R capture antibody (provided as part of the DuoSet ELISA kit) at 4 μg/ml TBS at 4° C. On day 2, the capture antibody solution was removed and MaxiSorp® plates were blocked with 300 μl per well of TBS, 1% BSA at room temperature for 3 hours. […] Using an infinite M1000 (Tecan Group, Switzerland) microplate reader, the fluorescence of each well was collected at an excitation wavelength of 435 nm and an emission wavelength of 555 nm.

## CNC(=O)[C@H](Cc1ccccc1)NC(=O)[C@H](CC(C)C)[C@H](CSc1cccs1)C(=O)NO [Batimastat]
  inhibition at 10 µM: 114%
